# Experimental data: patent US5936097A, “4,9-ethano-benzo(F)isoindole derivatives as farnesyl transferase inhibitors” (Rhone-Poulenc Rorer, S.A., priority 1995, dated 1999)
# Target: T1, human farnesyl transferase (Homo sapiens, UniProt P49354+P49356)
# T1 construct: human farnesyl transferase purified from THP1 cell cultures; endogenous in cells; host or cells: THP1 cell cultures (enzyme purified from the cells)
# Test: inhibition of farnesyl transferase ((3H) farnesyl transfer from (3H) FPP to p21 H-ras)
# Assay type: biochemical
# Conditions: human farnesyl transferase purified from THP1 cell cultures; p21 H-ras substrate; 20 minutes at 37° C.; 9 concentrations; read-out: in vitro inhibitory activity IC50
# Summary of the method: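 Radiometric transfer of [3H]farnesyl from 4.5 pmol [3H]FPP to 200 pmol p21 H-ras by ~5 ng human enzyme purified from THP1 cells, in 50 mM Tris-HCl, 5 mM MgCl2, 5 mM DTT, 0.2% octyl glucoside, 20 min at 37 °C. Protein precipitated with SDS/TCA in methanol, filter-bound counts measured; IC50 from 9 concentrations, triplicate.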
row,Structure (SMILES),IC50 [nM]
1,C=C(C(=O)N1C[C@H]2[C@@]3(c4ccccc4)CC[C@H](c4ccccc43)[C@@]2(C(=O)NCc2ccccc2OC)C1)c1ccccc1OC [Example 82],210
2,"C=C(C(=O)N1C[C@H]2[C@@]3(c4ccccc4)CC[C@H](c4ccccc43)[C@@]2(C(=O)N[C@H](C)c2cccc3ccccc23)C1)c1ccccc1OC [Example 83, (3aS,4R,9R,9aS)-N-[(R)-1-(1-naphthyl)ethyl]-4,9-ethano-2-[(2-methoxyphenyl)prop-2-en-1-oyl]-9-phenyl-2,3,3a,4,9,9a-hexahydro-1H-benzo[f]isoindole-3a-carboxamide]",5150
3,"C=C(C(=O)N1C[C@H]2[C@@]3(c4ccccc4)CC[C@H](c4ccccc43)[C@@]2(C(=O)NC2CCc3ccccc32)C1)c1ccccc1OC (stereo partly drawn) [Example 84, (3aS,4R,9R,9aS)-N-[(R,S)-1-indanyl]-4,9-ethano-2-[(2-methoxyphenyl)prop-2-en-1-oyl]-9-phenyl-2,3,3a,4,9,9a-hexahydro-1H-benzo[f]isoindole-3a-carboxamide]",330
4,"C=C(C(=O)N1C[C@H]2[C@@]3(c4ccccc4)CC[C@H](c4ccccc43)[C@@]2(C(=O)N[C@H](CO)c2ccccc2)C1)c1ccccc1OC [Example 85, (3aS,4R,9R,9aS)-N-[1-(S)-1-phenyl-2-hydroxyethyl]-4,9-ethano-2[-(2-methoxyphenyl)prop-2-en-1-oyl]-9-phenyl-2,3,3a,4,9,9a-hexahydro-1H-benzo[f]isoindole-3a-carboxamide]",260
5,"C=C(C(=O)N1C[C@H]2[C@@]3(c4ccccc4)CC[C@H](c4ccccc43)[C@@]2(C(=O)NC(C)(C)c2ccccc2)C1)c1ccccc1OC [Example 86, (3aS,4R,9R,9aS)-N-(2,2-dimethylbenzyl)-4,9-ethano-2[-(2-methoxyphenyl)prop-2-en-1-oyl]-9-phenyl-2,3,3a,4,9,9a-hexahydro-1H-benzo[f]isoindole-3a-carboxamide]",4850
6,"C=C(C(=O)N1C[C@H]2[C@@]3(c4ccccc4)CC[C@H](c4ccccc43)[C@@]2(C(=O)NC(C#N)c2ccccc2)C1)c1ccccc1OC (stereo partly drawn) [Example 87, (3aS,4R,9R,9aS)-N-[1-(R,S)-1-cyano-1-phenylmethyl]-4,9-ethano-2-[(2-methoxyphenyl)prop-2-en-1-oyl]-9-phenyl-2,3,3a,4,9,9a-hexahydro-1H-benzo[f]isoindole-3a-carboxamide]",250
7,"C=C(C(=O)N1C[C@H]2[C@@]3(c4ccccc4)CC[C@H](c4ccccc43)[C@@]2(C(=O)NC2CCSc3ccccc32)C1)c1ccccc1OC (stereo partly drawn) [Example 88, (3aS,4R,9R,9aS)-N-[(R,S)-4-benzo[b]thiopyranyl]-4,9-ethano-2-[(2-methoxyphenyl)prop-2-en-1-oyl]-9-phenyl-2,3,3a,4,9,9a-hexahydro-1H-benzo[f]isoindole-3a-carboxamide]",2500
8,"C=C(C(=O)N1C[C@H]2[C@@]3(c4ccccc4)CC[C@H](c4ccccc43)[C@@]2(C(=O)NCc2cccc(C(F)(F)F)c2)C1)c1ccccc1OC [Example 89, (3aS,4R,9R,9aS)-N-[3-trifluorobenzyl]-4,9-ethano-2-[(2-methoxyphenyl)prop-2-en-1-oyl]-9-phenyl-2,3,3a,4,9,9a-hexahydro-1H-benzo[f]isoindole-3a-carboxamide]",780
9,"C=C(C(=O)N1C[C@H]2[C@@]3(c4ccccc4)CC[C@H](c4ccccc43)[C@@]2(C(=O)NCc2ccc(OC)c(OC)c2)C1)c1ccccc1OC [Example 90, (3aS,4R,9R,9aS)-N-(3,4-dimethoxybenzyl)-4,9-ethano-2-[(2-methoxyphenyl)prop-2-en-1-oyl]-9-phenyl-2,3,3a,4,9,9a-hexahydro-1H-benzo[f]isoindole-3a-carboxamide]",970
10,"C=C(C(=O)N1C[C@H]2[C@@]3(c4ccccc4)CC[C@H](c4ccccc43)[C@@]2(C(=O)NCc2cccnc2)C1)c1ccccc1OC [Example 91, (3aS,4R,9R,9aS)-N-[(3-pyridyl)methyl]-4,9-ethano-2-[(2-methoxyphenyl)prop-2-en-1-oyl]-9-phenyl-2,3,3a,4,9,9a-hexahydro-1H-benzo[f]isoindole-3a-carboxamide]",160
11,"C=C(C(=O)N1C[C@H]2[C@@]3(c4ccccc4)CC[C@H](c4ccccc43)[C@@]2(C(=O)NCc2ccc(C(F)(F)F)cc2)C1)c1ccccc1OC [Example 92, (3aS,4R,9R,9aS)-N-[4-trifluorobenzyl]-[4,9-ethano-2-(2-methoxyphenyl)prop-2-en-1-oyl]-9-phenyl-2,3,3a,4,9,9a-hexahydro-1H-benzo[f]isoindole-3a-carboxamide]",4800
12,"C=C(C(=O)N1C[C@H]2[C@@]3(c4ccccc4)CC[C@H](c4ccccc43)[C@@]2(C(=O)NCc2ccccn2)C1)c1ccccc1OC [Example 93, (3aS,4R,9R,9aS)-N-[(2-pyridyl)-methyl]-4,9-ethano-2-[(2-methoxyphenyl)prop-2-en-1-oyl]-9-phenyl-2,3,3a,4,9,9a-hexahydro-1H-benzo[f]isoindole-3a-carboxamide]",450
13,"C=C(C(=O)N1C[C@H]2[C@@]3(c4ccccc4)CC[C@H](c4ccccc43)[C@@]2(C(=O)NCc2ccco2)C1)c1ccccc1OC [Example 94, (3aS,4R,9R,9aS)-N-[(2-furyl)-methyl]-4,9-ethano-2-[(2-methoxyphenyl)prop-2-en-1-oyl]-9-phenyl-2,3,3a,4,9,9a-hexahydro-1H-benzo[f]isoindole-3a-carboxamide]",430
14,"C=C(C(=O)N1C[C@H]2[C@@]3(c4ccccc4)CC[C@H](c4ccccc43)[C@@]2(C(=O)NCc2cccs2)C1)c1ccccc1OC [Example 95, (3aS,4R,9R,9aS)-N-[(2-thienyl)-methyl]-4,9-ethano-2-[(2-methoxyphenyl)prop-2-en-1-oyl]-9-phenyl-2,3,3a,4,9,9a-hexahydro-1H-benzo[f]isoindole-3a-carboxamide]",270
15,"C=C(C(=O)N1C[C@H]2[C@@]3(c4ccccc4)CC[C@H](c4ccccc43)[C@@]2(C(=O)NCc2cscn2)C1)c1ccccc1OC [Example 96, (3aS,4R,9R,9aS)-N-[(4-thiazolyl)-methyl]-4,9-ethano-2-[(2-methoxyphenyl)prop-2-en-1-oyl]-9-phenyl-2,3,3a,4,9,9a-hexahydro-1H-benzo[f]isoindole-3a-carboxamide]",360
